Data from patent US20100168112A1, “2-Substituted and 4-substituted aryl nitrone compounds” (RENOVIS, INC., priority 2004, published 2010).
Like-named read-outs stand apart in the source and are kept apart here.

Key:
[1] = Pharmacokinetic evaluation following intravenous and oral administration in rats; format: in vivo; settings: male, Sprague-Dawley; for Cmax / Tmax / bioavailability: 5 mg/kg; for Cmax: rat plasma; for Cmax / Tmax: oral gavage, 2 mg/mL at 2.5 mL/kg; for clearance / Vd / Tmax / bioavailability / half-life: plasma, rat; for clearance / Vd / half-life: 1 mg/kg; for clearance / Vd: intravenous administration, 1 mg/mL at 1.0 mL/kg; for clearance: read-out: CI (clearance) (converted); for Vd: read-out: Vd (volume of distribution); for bioavailability: po 2 mg/mL at 2.5 mL/kg vs iv 1 mg/mL at 1.0 mL/kg, dose-normalized, read-out: F (%) oral bioavailability; for half-life: intravenous, read-out: T1/2 elimination half life (converted)
Protocol: Male Sprague-Dawley rats were given at least 24 hours acclimation before experiment initiation. During acclimation period, all animals received food and water ad libitum. However, food (not water) was removed from the animal's cages up to 12 hours before initiation of the experiment. During the first 4 hours of experimentation, the animals received only water ad libitum. Two to three animals for iv and three animals for oral administration were tested. For iv formulation nitrone compounds of this invention were dissolved (1 mg/mL) in a mixture of 5% dimethyl acetamide (v/v), 0 to 4% Tween 80 (v/v), 10 to 40% PEG 400 (v/v) and the rest percentage of water (v/v). For oral formulation nitrone compounds of this invention were dissolved (2 mg/mL) in a mixture of 4% of 10% Tween in water and 96% of 0.5% carboxymethyl cellulose (medium viscosity) in water; or 4% of 10% Tween in water, 48% of 0.5% carboxymethyl cellulose (medium viscosity) in water, and 48% of 0.5% Hydroxypropyl Methylcellulose/0.2% Sodium Lauryl Sulfate in water. These formulations were stored at 5° C. until the experiment. Formulations were then stir-mixed at least half an hour before dosing. Exactly 200 μL of each left-over formulation was diluted with CH3CN/H2O for concentration analysis. The animals were weighed before dosing. The body weight was used to calculate the true dose for each animal:
IV dosing: • Dose volume (mL)=1.0 mL/kg The intravenous dose was administered through the jugular vein catheter or tail vein in less than 1 minute.
PO dosing: • Dose volume (mL)=2.5 mL/kg The oral dose was administered by oral gavage.
For IV dosing, blood samples were collected (using a pre-heparinized syringe) via the carotid artery or jugular vein catheter at t=2, 5, 15, 30, 60, 120, 180, 360, and 480 minutes post dosing. For PO dosing, blood samples were collected (using a pre-heparinized syringe) via the carotid artery or jugular vein catheter before dosing and at t=5, 15, 30, 60, 120, 180, 360, and 480 minutes post dosing. For some nitrone compounds a 1440 minutes (24 hours) sample was also taken for both IV and PO administrations. About 250 μL of blood was obtained at each time point from the animals. Equal volumes of 0.9% normal saline were replaced to prevent dehydration. The whole blood samples were maintained on ice until centrifugation. Blood samples were then centrifuged at 14,000 rpm for 10 minutes at 4° C. and the upper plasma layer transferred into a clean vial and stored at −80° C. The resulting plasma samples were then analyzed by mass spectroscopy using standard methods.
All the samples from above assays were analyzed on a PE-Sciex API 3000 triple quadrupole with a Turbo Ion Spray source. Nitrone compounds of this invention were separated from the matrix via a linear gradient reverse-phase chromatography using a C18 column, such as Thermo BDS Hypersil C18 (100×4.6 mm, 5 micron particle, 120A pore size). The mobile Phases were:
Nitrone compounds were detected by the mass spectrometer in the positive ion multiple reaction monitoring mode (MRM). For quantitative analysis, a standard curve was prepared by spiking a stock solution of the nitrone compound to the appropriate matrix to achieve a quantitation curve range and analyzed the standards in the same manner as the samples.
Pharmacokinetic parameters of the aryl nitrone compounds were determined by a noncompartmental analysis using WinNonlin-Pro (Version 4.1, Pharsight Corporation). Average and standard deviation of the parameters were calculated using standard formulas in Microsoft Excel.

[2] = Microsomal stability in human liver microsomes; format: in vitro ADME; settings: NADPH, 37° C.
Protocol: Frozen Sprague-Dawley rat liver microsomes (RLM) were thawed on ice and gently mixed before use. The final reaction mixture consisted of a nitrone compound of this invention (at ˜500 ng/ml), 1 mM NADPH, and 0.5 mg/ml of RLM protein in 0.1 M PBS (pH7.4), with organic solvent concentration not exceeding 1% (v/v). Per set of incubations, a positive control compound was included. The mixture was first pre-incubated 3 to 5 minutes at 37° C. without NADPH, and the reaction was then initialized by the addition of NADPH and incubated at 37° C. for up to 30 minutes. An aliquot of the reaction mixture was sampled at the initiation of the reaction and at designated time after reaction started. The drawn samples were quenched with acetonitrile, diluted with mobile phase to ensure the detection of test article in the linear range, and analyzed by LC/MS/MS. Half-life or percentage of remaining nitrone compound was calculated using standard methods. A similar method, or a slight variation of it, was used to test the stability of nitrones in human liver microsomes (HLM).

[3] = DPPH free radical-scavenging/antioxidant assay; format: biochemical; settings: 50 μM DPPH in 80% methanol; 24 h time point; read-out: EC50 (concentration at which a compound reduces by 50% the peak absorbance of DPPH at 520 nm)
How it was run: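 Compounds diluted 100-fold from DMSO stocks into 50 μM DPPH in 80% methanol; absorbance at 520 nm followed kinetically to steady state, with the 24 h reading used. EC50 interpolated from OD520 versus concentration; Trolox, BHA, PBN and S-PBN as positive controls, DMSO as vehicle.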

[4] = Solubility measurement at pH 7.4; format: physicochemical; settings: aqueous buffer, thermodynamic from solid, phosphate buffer pH 7.4, room temperature
Protocol: Nitrone compounds (>3 mg) of this invention were mixed with a phosphate buffer at pH 7.4 to make a >0.3 mg/mL mixture. The mixture was vortexed for more than 2 hours and equilibrated over 12 hours at room temperature. The equilibrated mixture was used to saturate a 0.45 μm Tuffryn syringe filter. After saturating, the remainder of the mixture was filtered through the saturated filter. The filtrate was diluted by 1, 10, 100, and 1000 fold and analyzed using a LC/MS/MS method with standard curve ranging from 1 to 1000 ng/mL.

CCI rats = experiment: Mechanical allodynia in mononeuropathic pain model (chronic constrictive injury, CCI, Bennett model); format: in vivo, SD rats; settings: for PWT ipsilateral hind paw (von Frey): 50 mg/kg p.o. single dose, mean ± SEM; for anti-allodynic effect on ipsilateral hind paw vs vehicle (in words): single dose 50 mg/kg, p.o.
Description: Adult male SD rats weighing 250-300 gm (Charles River Laboratories, San Diego, Calif.) were used. The animal room was lighted artificially at a 12-hr light-dark cycle (7:00 A.M. to 7:00 P.M) with water and food supply ad libitum. Animals were allocated randomly into groups. Seven days before establishing the mononeuropathic pain disease model, rats were trained on a metal mesh floor, covered with a plastic box (10×10×18 cm) 1-2 hr per day to habituate. During the habituating phase, non-painful tactile stimulation on the plantar surface of each hind paw was induced by a set of calibrated von Frey filaments, through the mesh floor, as described in example 2.
Following the 7-day training phase, the animals were anesthetized by i.p. injection of sodium pentobarbital (65 mg/kg, Abbott Lab, Chicago, Ill.). Under aseptic procedures, the skin of the left thigh was cut open for ˜2 cm. Mid-thigh level of the common sciatic nerve was exposed after blunt separation of the muscles. Two 4-0 silk and one 4-0 chromic gut sutures (both from Ethicon, Somerville, N.J.) were loosely ligated around the nerve, with a 1-1.5 mm interval between each of them. Skin wound was then close with wound clips. The right side (i.e., the contralateral side) was not surgically injured. After recovery from surgery, rats showing post-surgery neurological deficits or poor grooming were excluded from the experiments. This surgical procedure (i.e., chronic constrictive injury, CCI, or Bennett model) to establish mononeuropathic pain disease model has been described elsewhere (Bennett, G. J. and Xie, Y. K.: A peripheral mononeuropathy in rat that produces disorders of pain sensation like those seen in man. Pain, 33: 87-107, 1988).
On days 1, 3, 4, 7, 9, 11, and 14 after surgery, animals were tested for mechanical allodynia with von Frey filaments as described previously. On or around post-surgical day 14, the ipsilateral hind paw, felt to 5 grams, an indication of allodynia began to manifest mechanical allodynia (i.e., amplified response to non-painful tactile stimulation by von Frey filaments). The contralateral hind paws remained above the 5-gram level (i.e., no allodynia).
After manifestation of this allodynia, Compound 62 (50 mg/kg, p.o.), Compound 63 (50 mg/kg, p.o.), Compound 66 (50 mg/kg, p.o.), Compound 23 (50 mg/kg, p.o.), 4-hydroxy-tempol (TEMPOL, 50 mg/kg, p.o.), or piroxicam (a COX1 inhibitor, 50 mg/kg, p.o.) were administered to randomly-assigned animals. Changes of mechanical allodynia in the ipsilateral hind paw were recorded at several time points over the course of up to 24 hr.

[5] = system: carrageenan-sensitized inflammatory model of rat; experiment: Carrageenan-sensitized thermal hyperalgesia (Hargreaves test); format: in vivo; settings: 30 mg/kg oral, data not shown
Protocol: In this experiment, animals were habituated to the test environment for 2 days. Each rat was individually placed on a transparent perplex glass floor, covered with a plastic box (10×10×18 cm), and allowed 0.5-1 hr to habituate. After the acclimation period, basal thermal withdrawal latency (PWL, time interval between heat stimulation and paw withdrawal) was measured by exposing the plantar surface of a rats hind paw to a beam of radiant heat generated from a focused projection bulb through a transparent perplex glass surface (Hargreaves test; Hargreaves, K. R., Dubner, R., Brown, F., Flores, C. & Joris, J.: A new and sensitive method for measuring thermal nociception in cutaneous hyperalgesia. Pain, 32: 77-88, 1988). The PWL was averaged from at least two trials separated by a 2 min interval. A timer was used to measure the withdrawal latency and a cut of time of 20-sec was used to prevent tissue damage. Before the test on STZ-diabetic rats, the intensity of the radiating heat was adjusted to the level that caused naive animal to withdraw its paw at around 10 seconds.
After a stable basal PWL was obtained, the animals were briefly anesthetized with isoflurane (2-5% to effect). One side of their hind paws received an intraplantar injection of lambda carrageenan (2 mg in 100 microliter sterile saline, Sigma, St. Louis, Mo.). The contralateral side received no injection and served as an intra-subject control. The animals were then returned to their home cages and transferred to the individual testing chambers for heat thermal hyperalgesic testing, 2.5 hr after carrageenan injection. 3-hr post-carrageenan injection, PWLs of both hind paws (i.e., ipsilateral and contralateral) were measured at several time points post-carrageenan injection (15-min to 24-hr).
For compound testing, rats were randomly enrolled into groups that, immediately after the 3-hr post-carrageenan PWL was obtained, received oral dosing of Compound 62 (50 mg/kg), Compound 63 (50 mg/kg), vehicle (1 ml/kg), or indomethacin (30 mg/kg). Compound 62 and Compound 63 were prepared as a suspension in vehicle (96% of 0.5% CMC and 4% of 10% Tween 80) while indomethacin was prepared as a 30 mg/ml in normal saline.

[6] = read-out: Solubility @ pH 7.4 (μg/mL)

Structure (SMILES) | Cmax [1] [ng/mL] | clearance [1] [mL/min/kg] | Vd [1] [L/kg] | Tmax [1] [min] | bioavailability [1] [%] | half-life [1] [min] | % of Nitrone Remaining at 30 min (Human) [2] [%] | EC50 [3] [µM] | solubility ([4]; read-out: Solubility @ pH 7.4) [µM] | solubility [4, 6] [µg/mL] | PWT ipsilateral hind paw (von Frey) (CCI rats; post-dosing time 30 min) [gm] | PWT ipsilateral hind paw (von Frey) (CCI rats; post-dosing time 60 min) [gm] | PWT ipsilateral hind paw (von Frey) (CCI rats; post-dosing time 300 min) [gm] | PWT ipsilateral hind paw (von Frey) (CCI rats; post-dosing time 1440 min) [gm] | PWT ipsilateral hind paw (von Frey) (CCI rats; post-dosing time −15 min (pre-dose)) [gm] | anti-allodynic effect on ipsilateral hind paw vs vehicle (in words) (CCI rats) | effect on carrageenan-sensitized heat hyperalgesia (in words) [5]
CC(C)(C)/[N+]([O-])=C/c1cccnc1S(C)(=O)=O [Compound 73, N-tert-Butyl-C-(2-methanesulfonyl-pyridine-3-yl)nitrone] | 4170 | 3.33 | 0.8 | 85.2 | 72.2 | 166 | 100 | > 1000 | > 11300 | > 2900 |  |  |  |  |  |  | 
CC(C)(C)/[N+]([O-])=C/c1cc2ccccc2nc1S(C)(=O)=O [Compound 74, N-tert-Butyl-C-(2-methanesulfonyl-quinoline-3-yl)nitrone] | 12 | 376 | 10.7 | 11.4 | 9.4 | 19.2 | 75.7 | > 1000 | 96 | 29.4 |  |  |  |  |  |  | 
CS(=O)(=O)c1ncccc1/C=[N+](\[O-])Cc1ccccc1 [Compound 75, N-Benzyl-C-(2-methanesulfonyl-pyridine-3-yl)nitrone] | 1030 | 21.8 | 1.07 | 11.4 | 50.2 | 34.2 | 95.1 | > 1000 | 2920 | 848 |  |  |  |  |  |  | 
CC1(C)CC(O)CC(C)(C)N1[O] [TEMPOL, 4-hydroxy-tempol, reference compound] |  |  |  |  |  |  |  |  |  |  | 4.80 ± 0.49 | 4.80 ± 0.49 | 5.48 ± 1.09 | 4.80 ± 1.02 | 4.00 ± 0.89 | no significant anti-allodynic effect | 
COc1ccc2c(c1)c(CC(=O)O)c(C)n2C(=O)c1ccc(Cl)cc1 [indomethacin, reference compound] |  |  |  |  |  |  |  |  |  |  |  |  |  |  |  |  | significantly reversed carrageenan-sensitized heat hyperalgesia
CN1C(C(=O)Nc2ccccn2)=C(O)c2ccccc2S1(=O)=O [piroxicam, reference compound] |  |  |  |  |  |  |  |  |  |  |  |  |  |  |  | long-lasting anti-allodynic effect | 
